The values that follow come from publication PMC10700596 (Nature Communications, 2023).

Assay [1] has as its target T1, EP4R (Homo sapiens, UniProt P35408).
T1 construct: Tango fusion cassette (only 'tango' is printed); expressed in transfected cells; host or cells: HTLA cells (tTA-dependent luciferase reporter, β-arrestin2-TEV fusion)
The assay is described as follows: biochemical. It counts as binding. The conditions noted are these: for inhibition at 10 µM: read-out: % displacement of 3HPGE2 at 10 µM, 10 µM compound vs 10 nM 3H-PGE2.

In assay [2] the target is T1, EP4R. The assay is described as follows: PRESTO-Tango β-arrestin2 recruitment assay. The settings on record: for IC50: EC80 of PGE2; for Ki: PRESTO-Tango Ki* (nM), calculated using the Cheng Prusoff equation. It counts as cell-based.
The mark [3] stands for this setting: PRESTO-Tango -logIC50, antagonist mode.
[4] abbreviates: PRESTO-Tango IC50 (nM), antagonist mode.

T1 sequence (P35408 whole entry, the tested form may be a part): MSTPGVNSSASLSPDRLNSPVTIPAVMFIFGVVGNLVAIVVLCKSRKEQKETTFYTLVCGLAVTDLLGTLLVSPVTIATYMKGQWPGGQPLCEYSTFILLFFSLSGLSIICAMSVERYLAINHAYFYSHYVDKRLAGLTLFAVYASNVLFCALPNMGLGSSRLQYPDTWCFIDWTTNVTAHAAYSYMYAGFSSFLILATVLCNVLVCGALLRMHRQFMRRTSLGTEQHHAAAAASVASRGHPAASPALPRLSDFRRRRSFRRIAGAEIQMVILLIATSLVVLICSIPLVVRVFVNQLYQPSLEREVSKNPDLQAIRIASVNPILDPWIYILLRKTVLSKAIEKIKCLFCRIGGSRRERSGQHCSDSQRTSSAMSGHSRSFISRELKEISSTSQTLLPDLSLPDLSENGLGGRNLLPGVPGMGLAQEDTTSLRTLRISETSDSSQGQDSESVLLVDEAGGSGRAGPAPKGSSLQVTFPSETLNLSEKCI

For `O=C(NCc1cc(Cl)cc2c1OCC2)c1cc2sc(C(=O)O)cc2[nH]1` [Compound 13, OC(=O)C1=CC=2NC(=CC2S1)C(=O)NCC=3C=C(Cl)C=C4CCOC43], the inhibition at 10 µM in assay [1] is -16.5%.

Take `CC(Sc1ccccc1Cl)C(=O)N1CCCC(Cc2nnn[nH]2)C1` (stereo not shown) [Compound 58, CC(SC=1C=CC=CC1Cl)C(=O)N2CCCC(CC3=NN=NN3)C2]: in assay [1], the inhibition at 10 µM was found to be 10.8%.

For `CN(c1nc2cccc(F)c2s1)[C@H]1C[C@@H](C(=O)O)C1` [Compound 8, CN([C@H]1C[C@H](C1)C(=O)O)C2=NC=3C=CC=C(F)C3S2], the inhibition at 10 µM in assay [1] is -18.4%.

For the compound `O=C(O)c1cc2c(s1)CCCN(C(=O)C1CC13CCc1ccccc13)C2` (stereo not shown) [Compound 26, OC(=O)C1=CC=2CN(CCCC2S1)C(=O)C3CC43CCC=5C=CC=CC54], the inhibition at 10 µM in assay [1] is -10.6%.

For the compound `CCSc1cc(C(=O)O)ccc1NC(=O)c1cnn(-c2ccccc2F)c1` [Compound 59, CCSC=1C=C(C=CC1NC(=O)C=2C=NN(C2)C=3C=CC=CC3F)C(=O)O], the inhibition at 10 µM in assay [1] was determined as 11.6%.

In the case of `Cc1ccc(CN(Cc2ccco2)C(=O)CSc2nnc(S)s2)s1` [Compound 37, CC1=CC=C(CN(CC2=CC=CO2)C(=O)CSC3=NN=C(S)S3)S1], the inhibition at 10 µM in assay [1] is -5.2%.

For the compound `O=C(O)C(NS(=O)(=O)CCc1cccc(Cl)c1)C(O)c1ccccc1` (stereo not shown) [Compound 29, OC(C(NS(=O)(=O)CCC=1C=CC=C(Cl)C1)C(=O)O)C=2C=CC=CC2], the inhibition at 10 µM in assay [1] was -10.2%.

As for `Cc1cc(C)cc(C2(C(=O)NC(C)c3ncc(C(=O)O)s3)CC2)c1` (stereo not shown) [Compound 54, CC(NC(=O)C1(CC1)C=2C=C(C)C=C(C)C2)C3=NC=C(S3)C(=O)O], in assay [1], the inhibition at 10 µM was determined as 3.6%.

Consider `Cc1cccc2sc(N(C)CC(C)c3nnn[nH]3)nc12` (stereo not shown) [Compound 47, CC(CN(C)C1=NC=2C(C)=CC=CC2S1)C3=NN=NN3], for which the inhibition at 10 µM in assay [1] is -1.1%.

Regarding `O=C(O)c1c[nH]c2c(Cl)cc(-c3ccc4ccccc4c3F)cc2c1=O` [Compound 12, OC(=O)C1=CNC=2C(Cl)=CC(=CC2C1=O)C=3C=CC=4C=CC=CC4C3F], the inhibition at 10 µM in assay [1] was -17.1%.

Turning to `Cn1nc(-c2ccccc2)cc1CNC(=O)NC1CCC(C(=O)O)CC1` (stereo not shown) [Compound 48, CN1N=C(C=C1CNC(=O)NC2CCC(CC2)C(=O)O)C=3C=CC=CC3], in assay [1], the inhibition at 10 µM was -0.1%.

For the compound `O=C(O)[C@H]1C[C@@H](C(=O)N(Cc2ccsc2)c2ccccc2)C1` [Compound 31, OC(=O)[C@H]1C[C@H](C1)C(=O)N(CC=2C=CSC2)C=3C=CC=CC3], in assay [1] (10 µM compound vs 10 nM 3H-PGE2), the “% displacement of 3HPGE2 at 10 µM” value was -9.4%.

Regarding `Cc1cc(C(=O)N[C@@H]2CC[C@@H](C(=O)O)CCC2(F)F)c(C)n1-c1cccc(F)c1` [Compound 128, CC1=CC(C(=O)N[C@@H]2CC[C@H](CCC2(F)F)C(=O)O)=C(C)N1C=3C=CC=C(F)C3], the IC50 is 18200 nM in assay [2] (setting [3]) and more than 10000 nM in assay [2] (setting [4]).

In assay [2] (setting [4]), `O=C(O)C1CCC2(CC1)CC(Nc1ncnc3[nH]c4ncccc4c13)C2` (stereo not shown) [Compound 133, OC(=O)C1CCC2(CC(C2)NC=3N=CN=C4NC=5N=CC=CC5C34)CC1] came in with an IC50 of 1090 nM. In addition, the Ki in assay [2] is 218 nM.

For `Cc1sc(C(=O)NC2CCCC(C(=O)O)CC2)cc1-c1ccc(F)cc1` (stereo not shown) [Compound 108, CC=1SC(=CC1C=2C=CC(F)=CC2)C(=O)NC3CCCC(CC3)C(=O)O], the IC50 in assay [2] (setting [3]) is 501000 nM; in assay [2] (setting [4]), more than 10000 nM.

As to `O=C(N[C@@H]1CC[C@@H](C(=O)O)CCC1(F)F)c1nn(-c2cccc(F)c2)c2c1CCC2` [Compound 121, OC(=O)[C@@H]1CC[C@@H](NC(=O)C2=NN(C=3CCCC23)C=4C=CC=C(F)C4)C(F)(F)CC1], the IC50 was 1000 nM in assay [2] (setting [3]) and 1010 nM in assay [2] (setting [4]). Besides, the Ki in assay [2] was 202 nM.

On to `Cc1cc(C(=O)N(C)C2CCCC(C(=O)O)CC2)c(C)n1-c1ccccc1` (stereo not shown) [Compound 132, CN(C1CCCC(CC1)C(=O)O)C(=O)C=2C=C(C)N(C2C)C=3C=CC=CC3], for which the IC50 in assay [2] (setting [3]) is 23400 nM; in assay [2] (setting [4]), more than 10000 nM.

For the compound `O=C(NC1CC2(CCC(C(=O)O)CC2)C1)c1csc(C2CCCCC2)c1` (stereo not shown) [Compound 109, OC(=O)C1CCC2(CC(C2)NC(=O)C3=CSC(=C3)C4CCCCC4)CC1], the results for the IC50 in assay [2] (setting [3]) and in assay [2] (setting [4]) were 10200 nM and more than 10000 nM, respectively.

A word on the IC50: it is the concentration at which inhibition is half-maximal. One may read the Ki as the equilibrium dissociation constant of an inhibitor or competing ligand from its target.
